Measurements: patent US6716836B2, “Non-nucleoside reverse transcriptase inhibitors” (Boehringer Ingelheim (Canada) Ltd., priority 2001, dated 2004)

Experiments:
[1] = target: T1, HIV-1 RT wild type (WT) (Human immunodeficiency virus type 1 group M subtype B, UniProt P04585); assay: Reverse Transcriptase (RT) assay, wild type enzyme; type: biochemical
T1 construct: Heterodimeric RT was eluted using a descending gradient; made in house; host or cells: E. coli
Excerpt: (§1) Among the enzymes for which Human Immunodeficiency Virus (HIV-1) encodes is a reverse transcriptase (1), so-named because it transcribes a DNA copy from an RNA template. This activity can be quantitatively measured in a cell-free enzyme assay, which has been previously described (2), and is based upon the observation that reverse transcriptase is able to use a synthetic template poly r(C) primed with oligo d(G) to transcribe a radio-labelled, acid-precipitable DNA strand utilising ^3H-dGTP as a substrate. The assay described below utilises the wild type (WT) enzyme, which is the predominant form of the enzyme observed with patients infected with HIV-1. Utilisation of mutant RT enzymes (for example, Y181C, prepared by site-directed mutagenesis in which the tyrosine residue at codon 181 has been replaced by a cysteine residue, or the mutants K103N, V106A and Y188C) and analogous assay conditions allows compounds to be evaluated for their effectiveness at inhibiting the mutant enzymes.
(§2) The HIV-1 RT expression clone, pKRT2, was obtained from Yale University (3). An overnight culture, grown in 2×YT medium (37° C., 225 rpm) (4), supplemented with 100 μg/mL ampicillin for positive selection was used to inoculate the 2×YT medium. The culture was incubated (37° C., 225 rpm) until it reached an OD600 of 0.6-0.9. At that time, the repressor inhibitor IPTG (isopropyl P-D-thiogalactopyranoside) was added to 0.5 mM, and the mixture was incubated for an additional 2 hours.
(§3) Purification of recombinant reverse transcriptase was performed using a combination of methods previously described (5). This procedure is summarised briefly as follows: E. Coli containing RT-1 wt or RT-1 (Y181 C) were suspended in 50 mM MES, pH 6.0 containing 10% glycerol, lysed in a French press, centrifuged, and the supernates discarded. Lysate pellets were extracted with buffer A (50 mM MES, pH 6.0, 100 mM KCl, 50 mM KPi, 10% glycerol, 0.02% hexyl-β-glucoside), and re-centrifuged; nucleic acid in supernates was precipitated with 0.1% polyethylenimine. […] Bound RT was eluted with a gradient of 0 to 1.0M
(§4) (NH4)2 SO4 in buffer B. Heparin-Sepharose fractions containing RT were concentrated (Amicon YM-30 membrane), combined with equal volumes of 2.0M (NH4)2SO4 in buffer B and injected onto a 21.5×150 mm TSK Phenyl-5PW HIC HPLC column (Phenomenex). Heterodimeric RT was eluted using a descending gradient of 1.0M to 0M (NH4)2SO4 in buffer B, concentrated, and stored at 4° C.
(§5) The 2.4× concentrated stock reaction mixture was aliquoted and stored at −20° C. The mixture is stable and can be thawed for use in each assay. This enzyme assay has been adapted to a 96 well microtiter plate system, and has been previously described (6). Tris buffer (50 mM, pH 7.8), vehicle (solvent diluted to match the compound dilution), or compounds in vehicle were dispensed into 96-well microtiter plates (10 μL/well; 3 wells/compound). The HIV-1 RT enzyme was thawed, diluted in 50 mM Tris pH 7.8 containing 0.05% Chaps to give 1.5 nM enzyme and 25 μL were dispensed per well. Ten μL of 0.5M EDTA were added to the first three wells of the microtiter plate. EDTA chelates the Mg^2+ present and prevents reverse transcription. This group served as background polymerisation, which was subtracted, from all other groups. Twenty-five μl of the 2.4× reaction mixture was added to all wells and the assay was allowed to incubate at room temperature for 30 minutes. The assay was terminated by precipitating the DNA in each well with 60 μL of sodium pyrophosphate (2% w/v) in 10% trichloroacetic acid (TCA) (10% w/v). The microtiter plate was incubated for 15 minutes at 4° C. and the precipitate was harvested onto #30 glass fibre paper (Schleicher & Schuell) using a Tomtech 96-well harvester. The filters were dried, placed in plastic bags with Betaplate scintillation cocktail (Pharmacia/LKB) and counted in the Betaplate counter (Pharmacia/LKB).
(§6) The calculation for percent inhibition is as follows: [formula] […]

[2] = target: T2, HIV-1 RT double mutant K103N/Y181C (Human immunodeficiency virus type 1 group M subtype B, UniProt P04585, K690N/Y768C); assay: Reverse Transcriptase (RT) assay, double mutant enzyme; type: biochemical
T2 construct: Heterodimeric RT was eluted using a descending gradient; made in house; host or cells: E. coli (inferred; the text describes only wild type and Y181C preparations)
Excerpt: as §1, §2, §3, §4, §5, §6

Row | Compound | IC50 [1] | IC50 [2]
1 | CCN1c2ncc(COc3cccc4c3CS(=O)(=O)N4)cc2C(=O)N(C)c2ccc(F)nc21 [Compound 104] | > 1000 nM | –
2 | CN1C(=O)c2cc(CCOc3cccc4c3CS(=O)(=O)N4)cnc2N(C2CC2)c2ncccc21 [Compound 105] | < 100 nM | –
3 | Cc1cc(F)nc2c1NC(=O)c1cc(CCOc3cccc4c3CS(=O)(=O)N4)cnc1N2C1CC1 [Compound 106] | < 100 nM | –
4 | CCN1c2ncc(COc3cccc4c3CS(=O)(=O)N4C)cc2C(=O)N(C)c2ccc(F)nc21 [Compound 107] | < 100 nM | –
5 | CCN1c2ncc(COc3cccc4c3C(C)S(=O)(=O)N4C)cc2C(=O)N(C)c2ccc(F)nc21 (centres unmarked) [Compound 108] | 100 to 1000 nM | –
6 | CCN1c2ncc(CCOc3cccc4c3CS(=O)(=O)N4)cc2C(=O)Nc2c(C)cc(C)nc21 [Compound 109] | < 100 nM | 100 to 1000 nM
7 | CCN1c2ncc(CCOc3cccc4c3CS(=O)(=O)N4C)cc2C(=O)N(C)c2ccc(F)nc21 [Compound 111] | < 100 nM | < 100 nM
8 | CCN1c2ncc(CCOc3cccc4c3CS(=O)(=O)N4C)cc2C(=O)Nc2c(C)cc(F)nc21 [Compound 112] | < 100 nM | < 100 nM
9 | CCN1c2ncc(CCOc3cccc4c3CS(=O)(=O)N4)cc2C(=O)N(C)c2ccc(C)nc21 [Compound 113] | < 100 nM | 100 to 1000 nM
10 | CCN1c2ncc(CCOc3cccc4c3CS(=O)(=O)N4C)cc2C(=O)N(C)c2ccc(C)nc21 [Compound 114] | < 100 nM | < 100 nM
11 | CCN1c2ncc(CCOc3cccc4c3CS(=O)(=O)N4CC)cc2C(=O)N(C)c2ccc(C)nc21 [Compound 115] | < 100 nM | < 100 nM
12 | CN1C(=O)c2cc(CCOc3cccc4c3CS(=O)(=O)N4C)cnc2N(C2CC2)c2ncccc21 [Compound 116] | < 100 nM | 100 to 1000 nM
13 | Cc1cc(F)nc2c1NC(=O)c1cc(CCOc3cccc4c3CS(=O)(=O)N4C)cnc1N2C1CC1 [Compound 118] | < 100 nM | 100 to 1000 nM
14 | Cc1cc(F)nc2c1N(C)C(=O)c1cc(CCOc3cccc4c3CS(=O)(=O)N4C)cnc1N2C1CC1 [Compound 119] | < 100 nM | 100 to 1000 nM
15 | CCN1c2ncc(CCOc3cccc4c3CS(=O)(=O)N4)cc2C(=O)Nc2c(C)ccnc21 [Compound 120] | 100 to 1000 nM | –
16 | CCN1c2ncc(CCOc3cccc4c3CS(=O)(=O)N4CC3CC3)cc2C(=O)Nc2c(C)ccnc21 [Compound 121] | < 100 nM | 100 to 1000 nM
17 | CCOC(=O)N1c2cccc(OCCc3cnc4c(c3)C(=O)N(C)c3cccnc3N4CC)c2CS1(=O)=O [Compound 122] | < 100 nM | < 100 nM
18 | CCN1c2ncc(CCOc3cccc4c3CS(=O)(=O)N4CC(=O)NO)cc2C(=O)N(C)c2cccnc21 [Compound 133] | < 100 nM | < 100 nM
19 | CCN1c2ncc(CCOc3cccc4c3CS(=O)(=O)N4CC(=O)N(C)O)cc2C(=O)N(C)c2cccnc21 [Compound 134] | < 100 nM | < 100 nM
20 | CCOC(=O)CCCN1c2cccc(OCCc3cnc4c(c3)C(=O)N(C)c3cccnc3N4CC)c2CS1(=O)=O [Compound 135] | < 100 nM | < 100 nM
21 | CCN1c2ncc(CCOc3cccc4c3CS(=O)(=O)N4CC(=O)NC3CC3)cc2C(=O)N(C)c2cccnc21 [Compound 139] | < 100 nM | 100 to 1000 nM
22 | CCNC(=O)CN1c2cccc(OCCc3cnc4c(c3)C(=O)N(C)c3cccnc3N4CC)c2CS1(=O)=O [Compound 140] | < 100 nM | < 100 nM

Row | Compound | IC50 [1] | IC50 [2]
23 | CCN1c2ncc(CCOc3cccc4c3CS(=O)(=O)N4CCOc3ccncc3)cc2C(=O)N(C)c2cccnc21 [Compound 142] | < 100 nM | < 100 nM
24 | CCN1c2ncc(CCOc3cccc4c3CS(=O)(=O)N4CCOc3cc[n+]([O-])cc3)cc2C(=O)N(C)c2cccnc21 [Compound 143] | < 100 nM | < 100 nM
25 | Cc1ccnc2c1NC(=O)c1cc(CCOc3cccc4c3CS(=O)(=O)N4Cc3cc[n+]([O-])cc3)cnc1N2C1CC1 [Compound 144] | < 100 nM | 100 to 1000 nM
26 | CCN1c2ncc(CCOc3cccc4c3CS(=O)(=O)N4Cc3cc[n+]([O-])cc3)cc2C(=O)Nc2c(C)cc(F)nc21 [Compound 145] | < 100 nM | < 100 nM
27 | CCN1c2ncc(CCOc3cccc4c3CS(=O)(=O)N4Cc3cc[n+]([O-])cc3)cc2C(=O)Nc2c(C)cc(Cl)nc21 [Compound 146] | < 100 nM | < 100 nM
28 | CCN1c2ncc(COc3cccc4c3CS(=O)(=O)N4Cc3cc[n+]([O-])cc3)cc2C(=O)N(C)c2ccc(F)nc21 [Compound 148] | < 100 nM | –
29 | CCN1c2ncc(CCOc3cccc4c3C(C)(C)NS4(=O)=O)cc2C(=O)N(C)c2cccnc21 [Compound 224] | < 100 nM | 100 to 1000 nM
30 | Cc1ccnc2c1NC(=O)c1cc(CCOc3cccc4c3C(C)(C)NS4(=O)=O)cnc1N2C1CC1 [Compound 226] | < 100 nM | > 1000 nM
31 | CCN1c2ncc(CCOc3ccc4c(c3)CNS4(=O)=O)cc2C(=O)N(C)c2cccnc21 [Compound 301] | < 100 nM | 100 to 1000 nM
32 | CCN1c2ncc(CCOc3ccc4c(c3)CN(C)S4(=O)=O)cc2C(=O)N(C)c2cccnc21 [Compound 303] | < 100 nM | 100 to 1000 nM
33 | CCN1c2ncc(CCOc3ccc4c(c3)C(C)(C)NS4(=O)=O)cc2C(=O)N(C)c2cccnc21 [Compound 306] | < 100 nM | < 100 nM
34 | CCN1c2ncc(CCOc3ccc4c(c3)C(C)(C)N(C)S4(=O)=O)cc2C(=O)N(C)c2cccnc21 [Compound 307] | < 100 nM | 100 to 1000 nM
35 | CCN1c2ncc(CCOc3ccc4c(c3)CNS4(=O)=O)cc2C(=O)Nc2c(C)cc(F)nc21 [Compound 310] | < 100 nM | 100 to 1000 nM
36 | CCN1c2ncc(CCOc3ccc4c(c3)CS(=O)(=O)N4)cc2C(=O)N(C)c2cccnc21 [Compound 402] | < 100 nM | > 1000 nM
37 | CCN1c2ncc(COc3ccc4c(c3)CS(=O)(=O)N4)cc2C(=O)N(C)c2ccc(F)nc21 [Compound 404] | < 100 nM | > 1000 nM
38 | CCN1c2ncc(CCOc3ccc4c(c3)C(C)(C)S(=O)(=O)N4)cc2C(=O)Nc2c(C)cc(F)nc21 [Compound 409] | < 100 nM | 100 to 1000 nM
39 | CCN1c2ncc(CCOc3cccc4c3CCS(=O)(=O)N4CC(N)=O)cc2C(=O)N(C)c2cccnc21 [Compound 609] | < 100 nM | < 100 nM
40 | CCN(CC)C(=O)N1c2cccc(OCCc3cnc4c(c3)C(=O)N(C)c3cccnc3N4CC)c2CCS1(=O)=O [Compound 610] | < 100 nM | < 100 nM
41 | CCN1c2ncc(CCOc3cccc4c3CCS(=O)(=O)N4C(=O)N(C)OC)cc2C(=O)N(C)c2cccnc21 [Compound 611] | < 100 nM | < 100 nM
42 | CCN(CC)CCN1c2cccc(OCCc3cnc4c(c3)C(=O)N(C)c3cccnc3N4CC)c2CCS1(=O)=O [Compound 613] | < 100 nM | < 100 nM
43 | CCN1c2ncc(CCOc3cccc4c3CCS(=O)(=O)N4CC(=O)O)cc2C(=O)N(C)c2cccnc21 [Compound 614] | < 100 nM | < 100 nM
44 | CCN1c2ncc(CCOc3cccc4c3C=CS(=O)(=O)N4)cc2C(=O)N(C)c2cccnc21 [Compound 808] | 100 to 1000 nM | –
